Experiment: Assay of physical mixtures and extrudates for API stability by HPLC-UV
Format: physicochemical
Settings: after the grinding and sieving process as well as extrusion; physical mixture and extrudate
Description: Physical mixtures were assayed for drug load and stability post grinding and sieving. 5 mg of sample was weighed into an aluminum weighing boat and transferred to a low-binding Eppendorf, followed by the addition of 50 uL of ACN. This was vortexed vigorously until the polymer had dissolved and the API precipitated. Next, water was added and the mixture vortexed vigorously again until the API dissolved completely, and polymer had precipitated. For the 18% drug loaded physical mixtures, 2950 μL water was added and for the 9% drug loaded physical mixtures, 1450 μL water was added. Lastly, the Eppendorfs were centrifuged for 30 seconds at a speed of 5′000 RPM.
Extrudates were assayed for drug load and stability by cutting them to specific weights to give the same end concentration as the standards (net peptide concentration of 0.3 mg/mL) after the addition of diluent. […] Lastly, the Eppendorfs were centrifuged and supernatants analyzed.
Drug load and stability of API in the extrudates were quantified by HPLC-UV as describe above. […] Additionally, the homogeneity of the entire length of the extrudate was assessed by cutting and weighing three 3 mm pieces from each section from 1 to 16 (N=16, n=3) and assaying in the same way as outlined above (Assay of physical mixtures by HPLC-UV). Lastly, the average diameter of the extrudates was measured by caliper.

C[C@@H](O)[C@H](NN)C(=O)N[C@@H](CCCCN)C(=O)N1CCC[C@H]1C(=O)N[C@@H](CCCNC(=N)N)C(=O)C(=O)CNNC(Cc1ccc(O)c(/N=N/c2ccc(OP(=O)([O-])OCC[N+](C)(C)C)cc2)c1)C(=O)O (stereo partly shown) [PTC, Dazdotuftide]
stability of API after processing: stable

From US20260021158A1, “GRANULAR COMPOSITIONS COMPRISING A PEPTIDE AND USES THEREOF” (TARSIER PHARMA LTD., priority 2022, published 2026)
